Assay results reported in patent US20250263424A1, “KRAS INHIBITORS” (Bristol-Myers Squibb Company, priority 2022, published 2025).

Each molecule was assayed against Recombinant GMPPNP-loaded KRAS G12C (KRAS-G12C(ON), active form) (Homo sapiens, UniProt P01116, G12C) (assay: KRAS G12C RAF Disruption Assay (HTRF)). Details: GMPPNP-loaded KRAS G12C 5 nM, GST-RAF1 RBD 9 nM, values given in μM, read-out: KRASG12C RAF Disruption Assay (IC50).
Format: biochemical
In short: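 GMPPNP-loaded KRAS G12C (5 nM) preincubated with compound 20 min at room temperature in Tris pH 7.5 buffer with MgCl2, DTT and BSA. GST-RAF1 RBD (9 nM) then added for 20 min, and SA-Tb (0.25 nM) for 3 h. HTRF 520/495 ratio read; IC50 taken from the dose-response curve.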
Work on `Cc1cc(N)nc(-c2c(Cl)cc3c(N4CC5CC(C4)N5C(=O)/C(F)=C/c4nccs4)nc(OC[C@]45CCCN4C[C@H](F)C5)nc3c2F)c1C(F)(F)F` [Example 12, (Z)-1-(3-((7M)-7-(6-amino-4-methyl-3-(trifluoromethyl)pyridin-2-yl)-6-chloro-8-fluoro-2-(((2R,7aR)-2-fluorotetrahydro-1H-pyrrolizin-7a(5H)-yl)methoxy)quinazolin-4-yl)-3,6-diazabicyclo[3.1.1]heptan-6-yl)-2-fluoro-3-(thiazol-2-yl)prop-2-en-1-one] yielded an IC50 of 9.2 µM. `Cc1cc(N)nc(-c2c(Cl)cc3c(N4C[C@H](C)N(C(=O)/C(F)=C/c5nccs5)C[C@H]4C)nc(OCC45CCCN4CC(F)C5)nc3c2F)c1C(F)(F)F` (stereo partly drawn) [Example 19, (Z)-1-((2S,5R)-4-((7M)-7-(6-amino-4-methyl-3-(trifluoromethyl)pyridin-2-yl)-6-chloro-8-fluoro-2-((2-fluorotetrahydro-1H-pyrrolizin-7a(5H)-yl)methoxy)quinazolin-4-yl)-2,5-dimethylpiperazin-1-yl)-2-fluoro-3-(thiazol-2-yl)prop-2-en-1-one] was tested, and the IC50 was 3.2 µM. For `Cc1cc(N)nc(-c2c(Cl)cc3c(N[C@H]4C[C@@H](NC(=O)/C(F)=C/c5nccs5)C4)nc(OC[C@]45CCCN4C[C@H](F)C5)nc3c2F)c1C(F)(F)F` (atropisomer, axis not shown; (M)) [Example 13, (Z)-N-((1S,3s)-3-(((7M)-7-(6-amino-4-methyl-3-(trifluoromethyl)pyridin-2-yl)-6-chloro-8-fluoro-2-(((2R,7aR)-2-fluorotetrahydro-1H-pyrrolizin-7a(5H)-yl)methoxy)quinazolin-4-yl)amino)cyclobutyl)-2-fluoro-3-(thiazol-2-yl)acrylamide], the IC50 was 1.1 µM. “(Z)-1-(3-((7M)-7-(6-amino-4-methyl-3-(trifluoromethyl)pyridin-2-yl)-6-chloro-8-fluoro-2-(((2R,7aR)-2-fluorotetrahydro-1H-pyrrolizin-7a(5H)-yl)methoxy)quinazolin-4-yl)-3,9-diazabicyclo[3.3.1]nonan-9-yl)-2-fluoro-3-(thiazol-2-yl)prop-2-en-1-one [Example 14]” was tested, and the IC50 was 2.1 µM. Molecule `Cc1cc(N)nc(-c2c(Cl)cc3c(N4CC5CCC(C4)N5C(=O)/C(F)=C/c4nccs4)nc(OCC4(CN5CCCCC5)CC4)nc3c2F)c1C(F)(F)F` [Example 11, (Z)-1-((1R,5S)-3-((7M)-7-(6-amino-4-methyl-3-(trifluoromethyl)pyridin-2-yl)-6-chloro-8-fluoro-2-((1-(piperidin-1-ylmethyl)cyclopropyl)methoxy)quinazolin-4-yl)-3,8-diazabicyclo[3.2.1]octan-8-yl)-2-fluoro-3-(thiazol-2-yl)prop-2-en-1-one] has an IC50 of 5.3 µM. Work on `Cc1cc(N)nc(-c2c(Cl)cc3c(N4CC5CN(C(=O)/C(F)=C/c6nccs6)C5C4)nc(OC[C@]45CCCN4C[C@H](F)C5)nc3c2F)c1C(F)(F)F` (single isomer, unassigned) [Example 15, Isomer 1] yielded an IC50 of 93.8 µM.

Same assay, conditions: GMPPNP-loaded KRAS G12C 5 nM, GST-RAF1 RBD 9 nM, values in nM, read-out: KRASG12C RAF Disruption Assay (IC50)
`CN1CCC[C@H]1COc1nc(N2CCN(C(=O)/C(F)=C/c3nccs3)[C@@H](CC#N)C2)c2ccc(-c3cc(O)cc4ccccc34)c(F)c2n1` [Example 23, 2-((S)-1-((Z)-2-fluoro-3-(thiazol-2-yl)acryloyl)-4-(8-fluoro-7-(3-hydroxynaphthalen-1-yl)-2-(((S)-1-methylpyrrolidin-2-yl)methoxy)quinazolin-4-yl)piperazin-2-yl)acetonitrile] gave an IC50 of 0.016 µM. With `CN1CCC[C@H]1COc1nc(N2CCN(C(=O)/C(F)=C/c3ncccn3)CC2)c2ccc(-c3cc(O)cc4ccccc34)c(F)c2n1` [Example 32, (S,Z)-2-fluoro-1-(4-(8-fluoro-7-(3-hydroxynaphthalen-1-yl)-2-((1-methylpyrrolidin-2-yl)methoxy)quinazolin-4-yl)piperazin-1-yl)-3-(pyrimidin-2-yl)prop-2-en-1-one] the IC50 was 0.29 µM. Molecule `C#Cc1cccc2cccc(-c3ccc4c(N5CCN(C(=O)/C(F)=C/c6ccccn6)C[C@@H]5C)nc(OC[C@@]56CCCN5C[C@H](F)C6)nc4c3F)c12` [Example 88, (Z)-1-((S)-4-(7-(8-ethynylnaphthalen-1-yl)-8-fluoro-2-(((2R,7aS)-2-fluorotetrahydro-1H-pyrrolizin-7a(5H)-yl)methoxy)quinazolin-4-yl)-3-methylpiperazin-1-yl)-2-fluoro-3-(pyridin-2-yl)prop-2-en-1-one] has an IC50 of 0.043 µM. `Cc1cc(N)nc(-c2c(Cl)cc3c(N4C[C@H]5CC[C@@H]4[C@@H]5NC(=O)/C(F)=C/c4ccccn4)nc(OC[C@]45CCCN4C[C@H](F)C5)nc3c2F)c1C(F)(F)F` [Example 45, (2Z)-N-[(1R,4R,7R)-2-[(7M)-2-{[(2R,7aR)-2-fluoro-hexahydro-1H-pyrrolizin-7a-yl]methoxy}-7-[6-amino-4-methyl-3-(trifluoromethyl)pyridin-2-yl]-6-chloro-8-fluoroquinazolin-4-yl]-2-azabicyclo[2.2.1]heptan-7-yl]-2-fluoro-3-(pyridin-2-yl)prop-2-enamide] gave an IC50 of 0.048 µM. Work on `COCCCN1CCC(Oc2nc(N3CCN(C(=O)/C(F)=C/c4ccccn4)[C@@H](CC#N)C3)c3ccc(-c4cccc5cccc(Cl)c45)c(F)c3n2)CC1` [Example 73, (S,Z)-2-(4-(7-(8-chloronaphthalen-1-yl)-8-fluoro-2-((1-(3-methoxypropyl)piperidin-4-yl)oxy)quinazolin-4-yl)-1-(2-fluoro-3-(pyridin-2-yl)acryloyl)piperazin-2-yl)acetonitrile] yielded an IC50 of 0.71 µM. Molecule `N#CC[C@H]1CN(c2nc(OC[C@@]34CCCN3C[C@H](F)C4)nc3c(F)c(-c4cccc5cccc(C#N)c45)ccc23)CCN1C(=O)/C(F)=C/c1ccccn1` [Example 78, 8-(4-((S)-3-(cyanomethyl)-4-((Z)-2-fluoro-3-(pyridin-2-yl)acryloyl)piperazin-1-yl)-8-fluoro-2-(((2R,7aS)-2-fluorotetrahydro-1H-pyrrolizin-7a(5H)-yl)methoxy)quinazolin-7-yl)-1-naphthonitrile] has an IC50 of 0.24 µM. With `COc1ccc(Cl)cc1-c1ccc2c(N3CCN(C(=O)/C(F)=C/c4nccs4)[C@@H](CC#N)C3)nc(OC[C@@H]3CCCN3C)nc2c1F` [Example 62, 2-((S)-4-(7-(5-chloro-2-methoxyphenyl)-8-fluoro-2-(((S)-1-methylpyrrolidin-2-yl)methoxy)quinazolin-4-yl)-1-((Z)-2-fluoro-3-(thiazol-2-yl)acryloyl)piperazin-2-yl)acetonitrile] the IC50 was 3.1 µM. `C#Cc1cccc2cccc(-c3ccc4c(N(C)[C@@H]5CCN(C(=O)/C(F)=C/c6nccs6)C5)nc(OC[C@@]56CCCN5C[C@H](F)C6)nc4c3F)c12` [Example 82, (Z)-1-((R)-3-((7-(8-ethynylnaphthalen-1-yl)-8-fluoro-2-(((2R,7aS)-2-fluorotetrahydro-1H-pyrrolizin-7a(5H)-yl)methoxy)quinazolin-4-yl)(methyl)amino)pyrrolidin-1-yl)-2-fluoro-3-(thiazol-2-yl)prop-2-en-1-one] gave an IC50 of 0.04 µM. `CN1CCC[C@H]1COc1nc(N2CCN(C(=O)/C(F)=C/c3ccccn3)CC2)c2ccc(-c3cc(O)cc4ccccc34)c(F)c2n1` [Example 28, (S,Z)-2-fluoro-1-(4-(8-fluoro-7-(3-hydroxynaphthalen-1-yl)-2-((1-methylpyrrolidin-2-yl)methoxy)quinazolin-4-yl)piperazin-1-yl)-3-(pyridin-2-yl)prop-2-en-1-one] showed an IC50 of 0.35 µM. For `Cc1ccc2[nH]ncc2c1-c1ccc2c(N3CCN(C(=O)/C(F)=C/c4nccs4)[C@@H](CC#N)C3)nc(OC[C@@]34CCCN3C[C@H](F)C4)nc2c1F` [Example 77, 2-((2S)-4-(8-fluoro-2-(((2R,7aS)-2-fluorotetrahydro-1H-pyrrolizin-7a(5H)-yl)methoxy)-7-(5-methyl-1H-indazol-4-yl)quinazolin-4-yl)-1-((Z)-2-fluoro-3-(thiazol-2-yl)acryloyl)piperazin-2-yl)acetonitrile], the IC50 was 0.05 µM. In the case of `C#Cc1c(F)ccc2cc(O)cc(-c3ccc4c(N5C[C@H]6CC[C@@H](C5)N6C(=O)/C(F)=C/c5nccs5)nc(OC[C@@H]5CCCN5C)nc4c3F)c12` [Example 21, (Z)-1-((1R,5S)-3-(7-(8-ethynyl-7-fluoro-3-hydroxynaphthalen-1-yl)-8-fluoro-2-(((S)-1-methylpyrrolidin-2-yl)methoxy)quinazolin-4-yl)-3,8-diazabicyclo[3.2.1]octan-8-yl)-2-fluoro-3-(thiazol-2-yl)prop-2-en-1-one], the IC50 is reported as 0.4 µM. `CN1CCC[C@H]1COc1nc(N2CCN(C(=O)/C(F)=C/c3cnccn3)[C@@H](CC#N)C2)c2ccc(-c3cc(Cl)ccc3OC(F)(F)F)c(F)c2n1` [Example 68, 2-((S)-4-(7-(5-chloro-2-(trifluoromethoxy)phenyl)-8-fluoro-2-(((S)-1-methylpyrrolidin-2-yl)methoxy)quinazolin-4-yl)-1-((Z)-2-fluoro-3-(pyrazin-2-yl)acryloyl)piperazin-2-yl)acetonitrile] showed an IC50 of 20.4 µM. For `C#Cc1c(F)ccc2cc(O)cc(-c3ccc4c(N5C[C@H]6CC[C@@H](C5)N6C(=O)/C(F)=C/c5cccc(C)n5)nc(OC[C@@H]5CCCN5C)nc4c3F)c12` [Example 35, (Z)-1-((1R,5S)-3-(7-(8-ethynyl-7-fluoro-3-hydroxynaphthalen-1-yl)-8-fluoro-2-(((S)-1-methylpyrrolidin-2-yl)methoxy)quinazolin-4-yl)-3,8-diazabicyclo[3.2.1]octan-8-yl)-2-fluoro-3-(6-methylpyridin-2-yl)prop-2-en-1-one], the IC50 was 0.29 µM. In the case of `Cc1cccc(/C=C(\F)C(=O)N2CCN(c3nc(OC[C@@H]4CCCN4C)nc4c(F)c(-c5cc(O)cc6ccccc56)ccc34)C[C@@H]2CC#N)n1` [Example 34, 2-((S)-1-((Z)-2-fluoro-3-(6-methylpyridin-2-yl)acryloyl)-4-(8-fluoro-7-(3-hydroxynaphthalen-1-yl)-2-(((S)-1-methylpyrrolidin-2-yl)methoxy)quinazolin-4-yl)piperazin-2-yl)acetonitrile], the IC50 is reported as 0.027 µM.
